Measurements published in patent US8846012B2, “Melanin production inhibitor” (Pola Chemical Industries Inc., priority 2008, dated 2014).

System: normal human melanocytes
Experiment: Melanin production inhibition test using cultured normal human melanocytes (14C-thiouracil incorporation)
Assay type: cell-based
Conditions: control = 100%; for activity at 5 µM: addition amount 5.0 μM; for activity at 20 µM: addition amount 20 μM; for activity at 10 µM: addition amount 10 μM; for activity at 3.1 µM: addition amount 3.1 μM; for activity at 1.6 µM: addition amount 1.6 μM; for activity at 8 µM: addition amount 8.0 μM
Procedure: The inhibitory effect on melanin production of the melanin production inhibitor of the present invention can be measured using thiouracil which is incorporated specifically into cells in a melanin synthesis process in the cells. For example, the amount of melanin production can be measured by measuring an amount of thiouracil incorporated into cells by measuring an amount of radiation with radiolabeled thiouracil.
The inhibitory effect on melanin production of Compound 1 was evaluated using 2-thiouracil (^14C-labeled 2-thiouracil was used in this test) which is incorporated specifically into melanin in an intracellular melanin synthesis process. Complete medium for culture of melanocytes (manufactured by Kurabo Industries Ltd.) was added to 15 wells in a 24-well plate in an amount of 2 mL per well, and normal human melanocytes (manufactured by Kurabo Industries Ltd.) were seeded into the wells at a concentration of 1.5×10^4 cells/cm^2. The cells were cultured in a 5% carbon dioxide atmosphere at 37° C. for 24 hours. Thereafter, the medium in all the wells was exchanged under the following conditions: fresh complete medium for culture of melanocytes (control) was used in three wells; each of complete medium for culture of melanocytes, which including Compound 1 at concentrations of 1.0 μM, 2.0 μM, and 4.0 μM, was used in a total of nine wells including three wells for each concentration; and complete medium for culture of melanocytes, each of which including arbutin (positive control) known as a melanin production inhibitor at a concentration of 0.5 mM (500 μM), was used in the other three wells. Further, 2-[2-^14C]thiouracil (^14C-labeled thiouracil) was added to each of these 15 wells at 0.25×10^−6 Ci (curie). Then, the cells were cultured for further 3 days under the same conditions as the above. After the completion of culture, the culture medium was removed from the wells, and the cells were washed with phosphate buffered physiological saline (PBS) and then separated from the bottoms of the wells with medium including trypsin and EDTA to prepare cell suspensions, followed by centrifugation to collect the cells. The number of the cells was counted using a hemocytometer. Thereafter, the amounts of ^14C-thiouracil in the cells collected from each well (0.25×10^−6 Ci) were measured using a liquid scintillation counter (ALOKA CO., LTD.). The percentages of an amount of radioactivity in the cells cultured in the medium including the test substances with respect to an amount of radioactivity in the cells collected from the well of the control were calculated as amounts of melanin (%). That is, as the amount of radioactivity incorporated into the cells is smaller, the amount of melanin is evaluated to be smaller, i.e., the melanin inhibition effect of the component added is evaluated to be larger.
Inhibitory effects on melanin production of Compounds 2 to 39 (however, the effects of Compound 9 and 15 were not measured) were examined in the same procedure as in Test Example 1.
These were examined in the same procedure as in Test Example 1.
Further, the results of melanin production inhibition by treatment with the respective test compounds, determined in the same procedure as in Test Example 1, are also shown in the table.

[1] = Homo sapiens, Melanocyte, Table 2

In the case of CC(c1ccccc1)(c1ccc(O)cc1)c1ccc(O)cc1 [4,4′-(1-Phenylidene)-bisphenol], the Amount of melanin (Table 3, addition amount 3.0 μM) is reported as 44.8 ± 1.0%.

For Oc1ccc(C2(c3ccc(O)cc3)CCCCC2)cc1 [4,4′-Cyclohexylidenebisphenol], the activity at 3 µM (Homo sapiens, Melanocyte, Table 3, addition amount 3.0 μM) was 38.3 ± 2.5%.

Work on CC(c1ccc(O)cc1)c1ccc(O)cc1 [4,4′-Ethylidenebisphenol] yielded an activity at 25 µM (Homo sapiens, Melanocyte, Table 3, addition amount 25 μM) of 30.5 ± 6.1%.

Oc1ccc(C(c2ccccc2)(c2ccccc2)c2ccccc2)cc1 [4-Tritylphenol] was tested, and the activity at 1.25 µM (Homo sapiens, Melanocyte, Table 3, addition amount 1.25 μM) was 27 ± 0.4%.

For OC[C@H]1O[C@@H](Oc2ccc(O)cc2)[C@H](O)[C@@H](O)[C@@H]1O [Arbutin, arbutin, reference compound], the activity at 500 µM (Homo sapiens, Melanocyte, addition amount 500 μM, mean ± SD of three samples) was 64.6 ± 2.3%.

c1ccc(C(c2ccccc2)(c2ccccc2)N2CCNCC2)cc1 [Compound 7, 1-(triphenylmethyl)piperazine] was tested, and the activity at 6 µM (Homo sapiens, Melanocyte, Table 2, addition amount 6.0 μM) was 51.1 ± 5.8%.

For c1ccc(C(c2ccccc2)(c2ccccc2)N2CCOCC2)cc1 [Compound 8, N-(triphenylmethyl)morpholine], the activity at 2.5 µM (Homo sapiens, Melanocyte, Table 2, addition amount 2.5 μM) was 39.2 ± 10.7%.

For c1ccc(C(c2ccccc2)(c2ccncc2)N2CCCCC2)cc1 [Compound 10, 1-{[diphenyl(4-pyridyl)]methyl}piperidine], the activity at 0.3 µM (Homo sapiens, Melanocyte, Table 2, addition amount 0.3 μM) was 77.3 ± 0.4%.

O=C1CCC(=O)N1C(c1ccccc1)(c1ccccc1)c1ccccc1 [Compound 11, 1-(triphenylmethyl)succinimide] gave an activity at 15 µM (Homo sapiens, Melanocyte, Table 2, addition amount 15 μM) of 53.7 ± 0.9%.

O[C@@H]1CCN(C(c2ccccc2)(c2ccccc2)c2ccccc2)C1 [Compound 12, (R)-1-triphenylmethyl-3-pyrrolidinol] was tested, and the activity at 5 µM [1] was 62.9 ± 3.7%.

Compound OC(c1ccccc1)c1ccc2ccccc2c1 (stereo not shown) [Compound 13, [(naphthyl)phenyl]methanol] has an activity at 20 µM [1] of 68.7 ± 5.2%.

OC(c1ccccc1)(c1ccccn1)c1ccccn1 [Compound 16, di(2-pyridyl)phenylmethanol] was tested, and the activity at 100 µM (Homo sapiens, Melanocyte, Table 2, addition amount 100 μM) was 91.5 ± 4.6%.

Compound COc1ccc(C(O)(c2ccccc2)c2ccccc2)cc1 [Compound 17, [diphenyl(4-methoxyphenyl)]methanol] has an activity at 10 µM [1] of 37 ± 1.5%.

COc1ccc(C(O)(c2ccccc2)c2ccc(OC)cc2)cc1 [Compound 18, [bis(4-methoxyphenyl)phenyl]methanol] was tested, and the activity at 10 µM [1] was 55.3 ± 3.4%.

Compound COc1ccc(C(c2ccccc2)(c2ccccc2)N2CCCCC2)cc1 [Compound 19, 1-[[(4-methoxyphenyl)diphenyl]methyl]piperidine] has an activity at 3.1 µM [1] of 51.5 ± 5.7%.

In the case of COc1ccc(C(c2ccccc2)(c2ccc(OC)cc2)N2CCCCC2)cc1 [Compound 20, 1-[[bis(4-methoxyphenyl)phenyl]methyl]piperidine], the activity at 3.1 µM [1] is reported as 73.2 ± 3.2%.

Work on COc1ccc(C(c2ccc(OC)cc2)(c2ccc(OC)cc2)N2CCCCC2)cc1 [Compound 21, 1-[tris(4-methoxyphenyl)methyl]piperidine] yielded an activity at 12.5 µM (Homo sapiens, Melanocyte, Table 2, addition amount 12.5 μM) of 53.5 ± 0.4%.

Cc1ccc(C(O)(c2ccc(C)cc2)c2ccc(C)cc2)cc1 [Compound 22, tris(4-methylphenyl)methanol] showed an activity at 1.6 µM [1] of 50.6 ± 2%.

Compound Cc1ccc(C(O)(c2ccccc2)c2ccc(C)cc2)cc1 [Compound 23, [bis(4-methylphenyl)phenyl]methanol] has an activity at 3.1 µM [1] of 47.2 ± 0.2%.

Cc1ccc(C(O)(c2ccccc2)c2ccccc2)cc1 [Compound 24, [diphenyl(4-methylphenyl)]methanol] was tested, and the activity at 3.1 µM [1] was 51.6 ± 1.6%.

Work on Cc1ccc(C(c2ccccc2)(c2ccccc2)N2CCCCC2)cc1 [Compound 25, [[diphenyl(4-methylphenyl)]methyl]piperidine] yielded an activity at 1.6 µM [1] of 48 ± 1.9%.

Cc1ccc(C(c2ccc(C)cc2)(c2ccc(C)cc2)N2CCCCC2)cc1 [Compound 27, 1-[tris(4-methylphenyl)methyl]piperidine] gave an activity at 3.1 µM [1] of 47.5 ± 0.6%.

With c1ccc(C(c2ccccc2)N2CCCC2)cc1 [Compound 28, 1-(diphenylmethyl)pyrrolidine] the activity at 60 µM (Homo sapiens, Melanocyte, Table 2, addition amount 60 μM) was 77.3 ± 5.6%.

Cc1ccc(C(c2ccc(C)cc2)N2CCCC2)cc1 [Compound 29, 1-[bis(4-methylphenyl)methyl]pyrrolidine] was tested, and the activity at 20 µM [1] was 49 ± 1.9%.

Compound CCNC(c1ccccc1)(c1ccccc1)c1ccccc1 [Compound 30, N-(triphenylmethyl)-N-ethylamine] has an activity at 8 µM [1] of 41.4 ± 0.7%.

COc1ccc(C(OCCO)(c2ccccc2)c2ccccc2)cc1 [Compound 31, 2-[[diphenyl(4-methoxyphenyl)]methyloxy]ethanol] gave an activity at 3.1 µM [1] of 37.6 ± 3.3%.

COc1ccc(C(OCCO)(c2ccccc2)c2ccc(OC)cc2)cc1 [Compound 32, 2-[bis(4-methoxyphenyl)phenylmethyloxy]ethanol] was tested, and the activity at 3.1 µM [1] was 58.8 ± 7.1%.

COc1ccc(C(NCCO)(c2ccccc2)c2ccccc2)cc1 [Compound 33, 2-[[diphenyl(4-methoxyphenyl)]methylamino]ethanol] was tested, and the activity at 5 µM [1] was 67.7 ± 5.1%.

COc1ccc(C(NCCO)(c2ccccc2)c2ccc(OC)cc2)cc1 [Compound 34, 2-[[bis(4-methoxyphenyl)phenyl]methylamino]ethanol] was tested, and the activity at 5 µM [1] was 71.4 ± 1.9%.

COc1ccc(C(OCCN)(c2ccccc2)c2ccccc2)cc1 [Compound 35, 2-[[diphenyl (4-methoxyphenyl)]methyloxy]ethylamine] showed an activity at 5 µM [1] of 80.4 ± 8.8%.

COc1ccc(C(OCCN)(c2ccccc2)c2ccc(OC)cc2)cc1 [Compound 36, 2-[[bis(4-methoxyphenyl)phenyl]methyloxy]ethylamine] showed an activity at 10 µM [1] of 71.7 ± 5.1%.

OCCN(CCO)C(c1ccccc1)(c1ccccc1)c1ccccc1 [Compound 37, N,N-[bis(2-hydroxyethyl)]-N-(triphenylmethyl)amine] was tested, and the activity at 4 µM (Homo sapiens, Melanocyte, Table 2, addition amount 4.0 μM) was 69.6 ± 3.9%.

With OCC(O)COC(c1ccccc1)(c1ccccc1)c1ccccc1 (stereo not shown) [Compound 38, 1,2-dihydroxy-3-(triphenylmethyloxy)propane] the activity at 8 µM [1] was 75.6 ± 0.2%.

Compound O=C(O)[C@H](CO)NC(c1ccccc1)(c1ccccc1)c1ccccc1 [Compound 39, N-(triphenylmethyl) serine] has an activity at 8 µM [1] of 54.9 ± 5.5%.
